Experimental data reported in patent US10278931B2, “Composition for treatment of inflammatory bowel disease and atopic dermatitis” (INNOPHARMASCREEN INC., priority 2015, dated 2019).

Legend:
[1] = test system: TSLP secretion from human mast cells (HMC-1 cells); assay: TSLP secretion ELISA in PMACI-stimulated mast cells; format: cell-based
Method: (§1) (1) Cell culture: A human mast cell line (HMC-1) was cultured in an IMDM supplemented with 10% FBS at 37° C. and 5% CO2. Candidate materials were dissolved in DMSO, and then filtered using a 0.22 μm filter. The resulting candidate materials were diluted with DMSO and the HMC-1 cells were treated therewith.
(3) Enzyme-linked immunosorbent assay (ELISA): Mast cells (3×10^6 cells/ml) were stabilized for 1 hour, and then treated with 0.1 μM, 1 μM, and 10 μM of candidate materials, followed by treatment with PMACI for 8 hours. The mast cells were centrifuged to obtain supernatants. To measure the amount of TSLP secreted from the cells, ELISA was used. The ELISA was performed in 96-well plates coated with 1 μg/well of TSLP capture Ab. The coated plates were washed twice with PBS. The cells were treated with PBS containing 10% FBS for 2 hours. Thereafter, the cells were washed with PBS containing 0.05% Tween-20 (Sigma), and recombinant TSLP was used to draw a standard curve. Subsequently, the plates were exposed to a biotinylated-TSLP antibody, Avidin peroxidase, an ARTS substrate containing 30% H2O2, and then measured at 405 nm.

HMC-1 cells = assay: Cytotoxicity (MTT-assay) in HMC-1 cells; format: cell-based, human
Method: as §1
[…] After culturing, the medium was replaced by a fresh medium, 5 mg/ml of an MTT solution was then added thereto, and the mast cells were incubated at 37° C. for 4 hours. 250 DMSO was added to the mast cells, MTT formazan was extracted therefrom, and absorbance of each well was measured at 540 nm using an ELISA reader.

DSS-induced animal model = assay: DSS-induced inflammatory bowel disease (enteritis) model; format: in vivo, C57BL/6 mice
Method: Six-week-old female SPF (Specific pathogen-free) C57BL/6 mice were purchased from DuPont Biotech. The mice were allowed to freely ingest a feed and water after an acclimation period of 1 week in an animal room of Hoseo University Safety Evaluation Center maintained at temperature of 21±3° C., humidity of 50±20%, and light/darkness cycle of 12 h/12 h. All procedures in the present animal experiment were conducted after approved by the Animal Experimental Ethics Committee of Hoseo University (HTRC-15-19, and HTRC-16-22(2)).
Dextran sodium sulfate (cat no 160110 by Mpbio. corn) as a colitis inducer was diluted to 3% concentration in drinking water and orally administered to mice to induce enteritis. The mice were divided into 6 groups and DW was administered to the animals of a control, and 1.0 mg/kg and 10 mg/kg of the test material were orally administered to the animals of the experimental groups once a day for […]. Sulfasalazine (100 mg/kg) dissolved in crude olive oil was orally administered once a day to the animals of a positive control. In acute cases, disease progression levels were examined after 5 days of administration. In chronic cases, disease progression levels were examined 15 days and 30 days after the 5 days of administration (reference: Toxicology Reports 2 (2015) 10391045-Caryophyllene attenuates dextran sulfate sodium-induced colitis in mice via modulation of gene expression associated mainly with colon inflammation).
Body weights were measured once for 5 days or more during the test period. The measured weights were quantified as 0 point if there was no difference compared with the normal control, 1 point for weight loss rate of 15%, 2 points for 510%, 3 points for 1015%, and 4 points for >15%. Feces observation was performed to examine the incidence of diarrhea, and the results thereof were quantified as scores (0, normal stool; 1, mildly soft stool; 2, very soft stool; 3, very soft stool (no regular shape); 4, watery stool).
Rectal tissues and blood were collected from 5 individuals for each of the autopsy times. Yuhan ketamine 50® (Yuhan Corporation, Korean) and Rompun (Bayer, USA) were mixed in a ratio of 3:1, and then used to anesthetize animals via muscular injection. Each anesthetized animal was subjected to laparotomy to collect blood from the abdominal artery, and after blood collection, the abdominal artery was cut and subjected to venesection and death to collect rectal tissue. The length and weight of the collected tissue were measured to calculate weight per 1 cm of the tissue. Some of the collected tissues were used in biopsy, and some thereof were frozen in liquid nitrogen and stored at −70° C. before analysis. […]

Structure (SMILES): Cl.N=C(N)NC(=N)Nc1ccc(Cl)cc1 [IPS-07001]
- TSLP production ([1]; HMC-1 cells, concentration of 0.011 μM (so in the source), non-cytotoxic): significantly regulated
- TSLP secretion from mast cells ([1]; PMACI-stimulated HMC-1 cells, ELISA): significantly inhibited
- cytotoxicity (MTT-assay) (HMC-1 cells; 10 μM): exhibited cytotoxicity
- cytotoxicity (MTT-assay) (HMC-1 cells; up to 1 μM): no cytotoxicity
- enteritis inhibitory activity (ratio of enteric weight to enteric length, wt/cm) (DSS-induced animal model; 10 mg/kg oral, compared to DSS control): superior enteritis inhibitory activity
- melena (DSS-induced animal model; compared to the DSS-induced group, oral): significantly decreased
